Experiment [1] relates to Pu22 (DNA, G4) TGAGGGTGGGTAGGGTGGGTAA
Briefly: CD melting at 265 nm. The settings on record: K+ 4.5 mM, Na+ (137 mM NaCl, 10 mM Na2HPO4); PBS pH 7.4; 125 µM tPD, 2.5 µM DNA (50 equiv.); Tm 62 to 64 °C.

For experiment [2] the test system is unchanged. Kind of experiment: CD spectroscopy. The settings on record: K+ 4.5 mM, Na+ (137 mM NaCl, 10 mM Na2HPO4); PBS pH 7.4, 40 °C; 125 µM tPD, 2.5 µM DNA; CD band increase at 263 nm.

The source of these data is article PMC9099682 (2022).

Molecules are shown by their SMILES.

On to `OC[C@H]1O[C@@H](Oc2cc(O)cc(/C=C/c3ccc(O)cc3)c2)[C@H](O)[C@@H](O)[C@@H]1O`, for which, in experiment [1], the ΔTm result is “+2 °C”. Besides, in experiment [2], the binding result was “yes”.
